Consider 1 compound from patent publication US20240000827A1, “COMPOSITIONS COMPRISING METHYL CYCLODEXTRINS FOR THE TREATMENT AND/OR PREVENTION OF HEPATIC STEATOSIS” (ROQUETTE FRERES, priority 2020, published 2024).

Holding throughout (assay type): in vivo, Golden Syrian hamster
Test [1] in a line: Example 2 preventive effect model: body weight and organ weights. The note with it: hypercholesterol diet (2.5% cholesterol) + 3% by weight cyclodextrin in feed, end of 42 days, N=10. How it is done: (§1) Male LVG golden Syrian hamsters were used for the studies below. The base feed consisted of the food AO4C sold by the company SAFE diet. In the hypercholesterol diets, cholesterol was added (provided by MP Biomedicals)
(§2) Different cyclodextrins were tested • firstly, hydroxypropyl-β-cyclodextrin (HPBCD) sold by the Applicant under the name “KLEPTOSE® HPB” (oral grade); • secondly, methyl-β-cyclodextrin (MCD) “KLEPTOSE® CRYSMEB”, owned by the Applicant.
(§3) In this study, 40 Golden Syrian origin LVG hamsters were divided into 4 groups of 10 and subjected for 6 weeks to the following diets: • “Control” group: normal diet • “Control HC” group: hypercholesterol diet (containing 2.5% by weight of cholesterol) • “HC+Crysmeb” group: hypercholesterol diet (containing 2.5% by weight of cholesterol)+3% by weight of Crysmeb (MCD) • “HC+HPBCD” group: hypercholesterol diet (containing 2.5% by weight of cholesterol)+3% by weight of HPBCD.
At the end of 42 days of study, the animals were sacrificed and the weight of the various organs was measured.

Test [2] is described as follows: Example 2 preventive effect model: plasma triglyceride levels. As to the method:
as §1, §2, §3

Test [3] concerns Golden Syrian origin LVG hamsters. In words: Example 2 preventive effect model: biochemical data measured in the liver (lipid storage). The note with it: end of the 42 days of treatment, HC diet + 3% cyclodextrin. As to the method:
as §1, §2, §3
Table 3 provides the biochemical data measured in the liver of the animals at the end of the 42 days of treatment.

The test system of test [4] is genes involved in de novo lipodogenesis, de novo cholesterol synthesis and cholesterol removal. Briefly: Example 2: messenger RNA expressed in the liver. The following applies: liver mRNA at end of study. As to the method: as §1, §2, §3
The levels of expression of different genes involved in de novo lipodogenesis (FIG. 3) and in de novo cholesterol synthesis (FIG. 5) and cholesterol removal (FIG. 6) were measured in the liver at the end of the study, in the 4 groups of animals.

On to `CC(O)COC[C@H]1O[C@@H]2O[C@H]3[C@H](O)[C@@H](O)[C@@H](O[C@H]4[C@H](O)[C@@H](O)[C@@H](O[C@H]5[C@H](O)[C@@H](O)[C@@H](O[C@H]6[C@H](O)[C@@H](O)[C@@H](O[C@H]7[C@H](O)[C@@H](O)[C@@H](O[C@H]8[C@H](O)[C@@H](O)[C@@H](O[C@H]1[C@H](O)[C@H]2O)O[C@@H]8COCC(C)O)O[C@@H]7COCC(C)O)O[C@@H]6COCC(C)O)O[C@@H]5COCC(C)O)O[C@@H]4COCC(C)O)O[C@@H]3COCC(C)O` (stereo partly drawn) [HPBCD, hydroxypropyl-β-cyclodextrin], for which, in test [1], the “weight of the adipose tissue of epididymis (Average)” value worked out at 1.4 and the “weight of the liver (Average)” value was determined as 4.5. The “plasma triglyceride level TG D0 (Average)” value in test [2] (day 0 (beginning of study), HC diet + 3% cyclodextrin) is 3.03. In test [2] (day 14, HC diet + 3% cyclodextrin), the “plasma triglyceride level TG D14 (Average)” value is given as 1.28. Besides, the “plasma triglyceride level TG D28 (Average)” value in test [2] (day 28, HC diet + 3% cyclodextrin) stood at 1.23. In addition, the “plasma triglyceride level TG D43 (Average)” value in test [2] (day 43 (end of study), HC diet + 3% cyclodextrin) turned out to be 1.58. Besides, in test [3], the “% lipids (g of lipid in liver/animal) (Average)” value is given as 1.04 g of lipid in liver/animal, the “% lipids (g/100 g of liver) D0 (Average)” value is given as 23.02 g/100 g of liver, the “CHOL (mg of chol in liver/animal) (Average)” value was 154.19 mg of chol in liver/animal and the “CHOL (mg/g liver) (Average)” value is 32.98 mg/g liver. Moreover, in test [3], the “TG (mg of TG in liver/animal) (Average)” value is 92.12 mg of TG in liver/animal and the “TG (mg/g liver) (Average)” value is listed as 22.73 mg/g liver. The “expression of genes involved in de novo lipogenesis (FAS, ACC, SCD1, SREBP1)” value in test [4] (FIG. 3) was “inhibition of the expression of the SCD1 and ACC genes”. Further, the “expression of genes involved in de novo cholesterol synthesis (SREB2, CYP51a1, HMGCR)” value in test [4] (FIG. 5) is listed as “little effect”.
